Data: publication PMC10126150 (2023)

How the values were obtained:
Assay in all cases: Cy3/quencher fluorescence plate reader
Conditions in all cases: 120 mM Na+, 5 mM K+, 1 mM Mg2+, 1 mM Ca2+; 20 mM Tris-HCl, 25 °C; affinity similar to glucose
[1] = test system: glu-1 ADS construct (DNA, aptamer, boronic acid-modified U (Z, T in the source) at 5,7,8,12,15,19,24,26 of strand 1 (MS of Bio-NNGmin: seven of eight coupled)) CCCGTGTTAGATAGTAAGTGCAATCTCGGCTTTCTGTCTCTTATACACATCTGACGCTGCCGACGA/TCGTCGGCAGCGTCAGATGTGTATAAGAGACAGTTTTTTTTTTTTTTTTTTTTTTTTTTAGGGCAGGCTC
[2] = test system: glu-2 ADS construct (DNA, aptamer, boronic acid-modified U (Z, T in the source) at 5,7,8,12,15,19,24,26 of strand 1 (MS of Bio-NNGmin: seven of eight coupled)) CCCGTGTTAGATAGTAAGTGCAATCTCGGCTTTCTGTCTCTTATACACATCTGACGCTGCCGACGA/TCGTCGGCAGCGTCAGATGTGTATAAGAGACAGTTTTTTTTTTTTTTTTTTTTTTTTTCAGGACAGGCTC
[3] = test system: glu-3 ADS construct (DNA, aptamer, boronic acid-modified U (Z, T in the source) at 5,7,8,12,15,19,24,26 of strand 1 (MS of Bio-NNGmin: seven of eight coupled)) CCCGTGTTAGATAGTAAGTGCAATCTCGGCTTTCTGTCTCTTATACACATCTGACGCTGCCGACGA/TCGTCGGCAGCGTCAGATGTGTATAAGAGACAGTTTTTTTTTTTTTTTTTTTTTTTTTTACCAGGAGCTC
[4] = test system: glu-4 ADS construct (DNA, aptamer, boronic acid-modified U (Z, T in the source) at 5,7,8,12,15,19,24,26 of strand 1 (MS of Bio-NNGmin: seven of eight coupled)) CCCGTGTTAGATAGTAAGTGCAATCTCGGCTTTCTGTCTCTTATACACATCTGACGCTGCCGACGA/TCGTCGGCAGCGTCAGATGTGTATAAGAGACAGTTTTTTTTTTTTTTTTTTTTTTTTTACCAGGAGCTTC

Measured: binding

OCC1(O)OC[C@@H](O)[C@@H](O)[C@@H]1O (stereo partly shown)
yes: [1] | [2] | [3] | [4]
